According to ChEMBL document CHEMBL3045947, “Identification of Novel Non-nucleoside Reverse Transcriptase Inhibitors Using Fragment-based Lead Generation” (Med Chem Res, 2005):
pEC50: −log10 of the molar value.

Key:
[1] = Selectivity index, ratio of CC50 for human MT4 cells to EC50 for HIV13B; assay type: toxicity, cell-based; conditions: read-out: Ratio CC50/EC50
[2] = Cytotoxicity against Homo sapiens (human) MT4 cells after 5 days by MTT assay; assay type: cell-based
[3] = system: Human immunodeficiency virus 1; assay: Antiviral activity against Human immunodeficiency virus 1 IIIB infected human MT4 cells assessed as inhibition of virus-induced cytopathic effect after 7 days by MTT assay; assay type: functional, organism-based; conditions: MT4, 168 h

Cc1cccc(-c2cc(-c3ccccc3O)nc(N)n2)c1
selectivity ratio [1]: 4 | CC50 at 120 h [2]: 13 µM | pEC50 [3]: 5.46

Nc1nc(-c2ccccc2)cc(-c2ccccc2O)n1
selectivity ratio [1]: 10 | CC50 at 120 h [2]: 31.3 µM | pEC50 [3]: 5.49

Nc1nc(-c2ccc(Cl)cc2)cc(-c2ccccc2O)n1
CC50 at 120 h [2]: > 74.7 µM | pEC50 [3]: < 4.13

Cc1ccc(-c2cc(-c3ccccc3O)nc(N)n2)cc1
CC50 at 120 h [2]: > 128 µM | pEC50 [3]: < 3.90

COc1ccc(-c2cc(-c3ccccc3O)nc(N)n2)cc1OC
CC50 at 120 h [2]: 7.36 µM | pEC50 [3]: < 5.13

Nc1nc(-c2cccs2)cc(-c2ccccc2O)n1
CC50 at 120 h [2]: 5.3 µM | pEC50 [3]: 5.25

COc1ccc(-c2cc(-c3ccccc3O)nc(N)n2)cc1
CC50 at 120 h [2]: 92.2 µM | pEC50 [3]: < 4.04

Nc1nc(-c2cccc(Cl)c2)cc(-c2ccccc2O)n1
CC50 at 120 h [2]: > 125 µM | pEC50 [3]: < 3.90

Nc1nc(-c2ccc(F)cc2)cc(-c2ccccc2O)n1
CC50 at 120 h [2]: 67.5 µM | pEC50 [3]: < 4.17

COc1cccc(-c2cc(-c3ccccc3O)nc(N)n2)c1
CC50 at 120 h [2]: > 78.3 µM | pEC50 [3]: < 4.11

Nc1nc(-c2ccco2)cc(-c2ccccc2O)n1
CC50 at 120 h [2]: > 125 µM | pEC50 [3]: < 3.90
